This is an account of results in patent publication US20190329063A1, “METHOD FOR MODIFYING THE T[…] OF DRUGS” (priority 2016, published 2019).

Series [1] has as its system subjects medicated with MPH. Briefly: Conjunctive continuous performance task (CPT) after half dose MPH with cognitive induction or music control. Format: in vivo, human. As to conditions: half dose MPH PO. The text has this: Reference is now made to FIGS. 7A-7B, depicting validation experiments for testing whether FPC improves attention functions of subjects medicated with MPH, according to some embodiments of the invention. In some embodiments, the experiment includes three sessions. In some embodiments, in the first session 702, the subjects performed a conjunctive continuous performance task (CPT, Shalev et al., 2011). In some embodiments, this test yields measures of sustained attention, which are generalized across different sensory modalities.
According to some embodiments, in the second and the third sessions 706, the subjects took half of their prescribed drug 708 dose by per os (PO) administration. In some embodiments, in the first epoch they went through either a cognitive induction condition 714 during which they performed the NeuroTrax tasks or a control condition 712 during which they listened to a piece of their favorite music. In some embodiments, these 30 min conditions were followed by a 20-minutes rest epoch 716, for example to allow for the testing of an enduring effect of the FPC. […]
According to some exemplary embodiments, FPC effect was measured for the sustained attention measures of average 722 and standard deviation 724 response time, which show high reliability and validity (Shalev et al., 2011). […]

The conditions of series [2]: after administration of Ritalin IR; cited from earlier work.
Series [3] deals with ADHD patients. Kind of series: Real-time fMRI neurofeedback of right-IFG after Ritalin IR with CPTi, CPT and Strooplike tasks. Format: in vivo, human. As to conditions: 0.1-0.2 mg/kg Ritalin IR; right-IFG Up vs Down regulation; 24 ADHD patients.
Experimental: According to some exemplary embodiments, 24 ADHD patients participated in a three session within-subject experimental design.
In some embodiments, taking the known pharmacokinetic properties of MPH into account, the neurofeedback paradigm was scheduled to begin towards the estimated peak concentration of MPH in brain blood plasma (45 min), and last for 40 minutes, well into the drug's plateau of concentration phase, thus assuming a maximum effect of drug delivery and absorption to the rIFG and related brain regions. Additionally, cognitive performance was evaluated before administration and following the NF task via three behavioral tasks (CPTi, CPT and Strooplike, measuring response inhibition, sustained attention and executive attention, respectively; Shalev-Mevorach et al. 2005; 2011).

Turning to `COC(=O)C(c1ccccc1)C1CCCCN1` (stereo not shown) [MPH, Methylphenidate], the “improvement of sustained attention measures, cognitive induction task relative to control task (music)” value in series [1] (two subjects) was “higher”. Further, in series [1] (two subjects (males)), the “sustained attention measures of average and standard deviation response time (CPT)” value was “improved”. The “estimated peak concentration of MPH in brain blood plasma (time)” value in series [2] was 45 min. The “effects on sustained attention (CPT task) and response inhibition (CPTi task) following the up regulation condition” value in series [3] is recorded as “substantially larger effects”.
